Data reported in patent US20250008959A1, “HERBICIDES AND USE THEREOF” (Projini Agchem LTD, priority 2021, published 2025).
pIC50, pKd: −log10 of the molar value. Like-named read-outs stand apart in the source and are kept apart here.

Key:
[1] = biological target: T1, AtOASS (O-acetyl serine sulfhydrylase from Arabidopsis thaliana) (Arabidopsis thaliana, UniProt P47998); experiment: Isothermal titration calorimetry (ITC) binding to OASS; conditions: OASS titrated into compound in ITC cell; single binding model
T1 construct: GST (N, cleaved yes); made in house; host or cells: E. coli Rosetta (DE3)
Excerpt: To evaluate the ability of the molecules to bind AtOASS (O-acetyl serine sulfhydrylase from Arabidopsis thaliana), the protein was placed in the ITC syringe and was titrated with the molecules that were placed in the ITC cell (see Examples section below). The direct dissociation binding constant (Kd) was then extracted from the binding curve using a single binding model, wherein a low Kd value corresponds to a stronger binding affinity.
To evaluate the binding of the small molecules to the enzyme OASS, the purified protein was placed in a 6-8 MWCO dialysis bag in 30 mM phosphate buffer, 30 mM NaCl, 1 mM TCEP, and 5% dimethyl sulfoxide. Sequential buffer exchange dialyses were executed for 12 hours each at 4° C. until dilution of >10,000 was achieved. Before the execution of the ITC binding experiment, the OASS was placed in the ITC syringe at a concentration of 400 μM and each of the small molecules was dissolved in the same dialysis buffer to a final concentration of 40 μM in the ITC cell. ITC experiments were conducted by titrating the OASS to the compounds in the cell. The ITC binding constant was evaluated using the build-in analysis software.
The designed de-novo herbicidal compounds were synthesized and evaluated for their in vitro and in planta activity. After dissolving the molecules to a stock of 50 mM in DMSO, binding and competition with the SAT-derived peptides were evaluated using ITC and FP. ITC measures the direct heat change occurring due to the interaction of a pair of molecules. ITC has certain advantages, such as the capability to detect a relatively broad range of binding affinities, being a label-free method, and providing a wide set of interaction parameters, such as affinity, stoichiometry, enthalpy, and entropy of binding. To evaluate the ability of the molecules to bind AtOASS, the protein was placed in the ITC syringe and was titrated with the molecules that were placed in the ITC cell. The direct dissociation binding constant (Kd) was then extracted from the binding curve using a single binding model. Two consecutive experiments were combined using the built in ITC module to enable better quantification. A low Kd value corresponds to a stronger binding affinity.

[2] = biological target: T2, OASS-SAT complex (AtOASS with SAT-derived peptide) (Arabidopsis thaliana, UniProt P47998); experiment: Fluorescence polarization (FP) competition with FITC-labeled SAT-derived peptide bound to OASS; type: binding; conditions: competition with FITC-SAT peptide 200 nM, OASS 2.2 μM; for pIC50: single site inhibition model
T2 construct: GST (N, cleaved yes); made in house; host or cells: E. coli Rosetta (DE3)
Protocol: Molecules were also tested for their ability to compete with the OASS binding to the SAT-derived peptide via a fluorescence polarization (FP) competition assay wherein the N-terminus labeled peptide was incubated with the AtOASS (see Examples section below). High FP values correspond to the peptide-bound state (low molecule concentrations) and low FP values correspond to the peptide-free state (low FP values). To extract the IC50, the FP data were fitted to a single site inhibition model in PRISM by GraphPad Software. The corresponding IC50 values were extracted, whereas low IC50 values correspond to molecule that better competes with the peptide binding to AtOASS. Fluorescence polarization (FP) measurements were made on samples arrayed in 96-well plates by using BioTek H1 Synergy instrument equipped with FP module. […] The peptide in a concentration of 200 nM was incubated with OASS at a concentration of 2.2 μM in each well. Variable concentrations of each molecule starting from 100 μM down to 0.048 μM were added to evaluate the ability of each molecule to compete off the FITC labeled peptide bound to OASS. Fluorescence experiments were executed with an Em/Exc wavelengths of 480/520 nm. All measurements were done in triplicate. Experimental polarization data from simple and competitive binding experiments were fitted using GraphPad Prism, with error bars representing SD. Molecules were also tested for their ability to compete with the OASS binding to the SAT-derived peptide via a fluorescence polarization (FP) competition assay. The N-terminus labeled peptide was incubated with the AtOASS in each of the wells in a 96-well plate. Various concentrations of the molecules were added and the FP values were recorded. High FP values correspond to the peptide-bound state (low molecule concentrations) and low FP values correspond to the peptide-free state (low FP values). To extract the IC50, the FP data were fitted to a single site inhibition model in graphpad prism. The corresponding IC50 values were extracted. Low IC50 values correspond to molecule that better competes with the peptide binding to AtOASS.

[3] = test system: Arabidopsis thaliana; experiment: Root elongation in plates (in planta root elongation assay); type: in vivo; conditions: 168 h, A. thaliana on MS medium plates, 7 days, read-out: Root-growth inhibition %
Protocol: 6-well plates were prepared in a biological hood with sterile half Murashige and Skoog mineral medium (MS; Duchefa, Haarlem, Netherlands) containing 1% sucrose (w/v), pH 5.8. Tested molecules were dissolved in 50 mM DMSO and diluted to various concentrations 1,000-fold greater than the final desired concentration the MS medium maintaining a final concentration of 0.1% DMSO. MS medium with 0.1% DMSO was used as a negative control. After 7 days the plates were scanned and the root length was calculated using the imageJ software. […] Further sterilization was done by washing the seeds with 50% hypochlorite and 0.2% Triton x-100 for 10 minutes followed by five cycles of washing with sterile water. Six seeds were placed in each well, and the plates were covered and sealed with parafilm. Plates were placed vertically at 4° C. for two days and then transferred to a growth chamber for seven days (22-24° C.) at day/light cycles of 16/8 hours. Following the in vitro evaluation, selected molecules were tested for their ability to inhibit A. thaliana root elongation on agar plates. Seeds were plated on medium containing the molecules dissolved in the indicated concentrations and root length was measured after 6 or 7 days when the root in the non-treated plate reached the end of the well.

[4] = test system: Amaranthus palmeri; experiment: Pre-emergence assay in pots; type: in vivo; conditions: pots sprayed with 2 ml, 5 mM, monitored 21 days
Protocol: (§1) 7×7 cm pots were prepared with 20% soil and 80% sand. Trifolium alexandrium (16 seeds), Lolium rigidum (25 seeds), Solanum nigrum (25 seeds), Amaranthus palmeri (40 seeds) or Sinapis arvensis (12 seeds) were sowed and 2 cm of strained sand was used to cover the seeds. The pots were placed in the growth room under a lighting regime of 16 hours of light and 8 hours in the dark at 23° C. The day after (except for the Solanum and Amaranthus 4-5 days after), the pots were sprayed in a chemical hood at a 45° angle with 2 ml spray solution containing 1:10 acetone or phosphate buffer dissolved active ingredient in tap water to a final concentration of 5 mM. Every 2-3 days the pots were irrigated with tap water.
(§2) Pre-emergence herbicidal activity was determined by monitoring plant growth in pots. Molecules were dissolved at the indicated concentrations below and volume of 2 ml was sprayed onto the soil, and plant growth was monitored for 21 days.

[5] = test system: Trifolium alexandrium; experiment: Pre-emergence assay in pots; type: in vivo; conditions: pots sprayed with 2 ml, 5 mM, monitored 21 days
Protocol: as §1, §2

[6] = test system: Lolium rigidum; experiment: Pre-emergence assay in pots; type: in vivo; conditions: pots sprayed with 2 ml, 5 mM, monitored 21 days
Protocol: as §1, §2

[7] = test system: Sinapis arvensis; experiment: Pre-emergence assay in pots; type: in vivo; conditions: pots sprayed with 2 ml, 5 mM, monitored 21 days
Protocol: as §1, §2

[8] = test system: Arabidopsis thaliana; experiment: L-cysteine recovery root elongation assay; type: in vivo; conditions: for pIC50: Arabidopsis thaliana, read-out: IC50 of A. thaliana growth inhibition
Protocol: For the L-cysteine recovery root elongation assay, 6-well plates were prepared in a biological hood with sterile half Murashige and Skoog mineral medium (MS; Duchefa, Haarlem, Netherlands) containing 1% sucrose (w/v), pH 5.8. A stock of 10 mM L-cysteine in DDW was prepared and diluted to a final concentration of 0.03 mM into the MS medium in the presence of 25 to 1.56 μM of PJL 109. The MS medium maintained a final concentration of 0.1% DMSO. MS medium with 0.1% DMSO and 0.03 mM L-cysteine was used as a negative control. After 7 days the plates were scanned and the root length was calculated using the imageJ software.
Arabidopsis thaliana seeds were washed with 70% ethanol for 1 minute and then with sterile water. Further sterilization was done by washing the seeds with 50% hypochlorite and 0.2% Triton x-100 for 10 minutes followed by five cycles of washing with sterile water. Six seeds were placed in each well, and the plates were covered and sealed with parafilm. Plates were placed vertically at 4° C. for two days and then transferred to a growth chamber for seven days (22-24° C.) at day/light cycles of 16/8 hours.

[9] = test system: Solanum nigrum; experiment: Pre-emergence assay in pots; type: in vivo; conditions: pots sprayed with 2 ml, 5 mM, monitored 21 days
Protocol: as §1, §2

T2 sequence (P47998 whole entry, one chain of several): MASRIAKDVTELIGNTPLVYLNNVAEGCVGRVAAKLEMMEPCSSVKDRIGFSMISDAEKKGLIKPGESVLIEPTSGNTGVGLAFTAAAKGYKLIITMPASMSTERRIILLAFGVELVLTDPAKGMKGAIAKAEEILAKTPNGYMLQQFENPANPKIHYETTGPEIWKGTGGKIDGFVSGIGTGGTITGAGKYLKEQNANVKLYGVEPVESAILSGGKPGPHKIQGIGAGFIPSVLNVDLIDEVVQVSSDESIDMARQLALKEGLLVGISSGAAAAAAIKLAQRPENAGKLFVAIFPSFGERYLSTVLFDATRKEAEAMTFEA
T1 sequence (P47998 whole entry): as the sequence (P47998 whole entry, one chain of several) above

SMILES: COc1ccc(-c2csc(NC(=O)c3ccccc3-c3ccccc3C(=O)O)n2)cc1 [PJL-61]
- pKd [1]: 6.40
- FP % inhibition [2]: 43%
- pIC50 [2]: 5.33
- inhibition at 50 µM [3]: 95%
- Pre-emergence assay Germination inhibition on (%) [4]: 33%
- Pre-emergence assay Growth inhibition on (%) [4]: 0%
- Pre-emergence assay Germination inhibition on (%) [5]: 70%
- Pre-emergence assay Growth inhibition on (%) [5]: 60%

SMILES: O=C(O)c1ccccc1-c1ocnc1C(=O)Nc1nc(-c2ccc(Cl)cc2Cl)cs1 [PJL-117]
- FP % inhibition [2]: 10%
- pIC50 [2]: 3.61
- inhibition at 50 µM [3]: 100%
- Pre-emergence assay Germination inhibition on (%) [6]: 0%
- Pre-emergence assay Growth inhibition on (%) [6]: 60%
- Pre-emergence assay Germination inhibition on (%) [7]: 90%
- Pre-emergence assay Growth inhibition on (%) [7]: 80%

SMILES: COc1ccc(C(=O)O)c(NS(=O)(=O)c2cnc(-c3ccc(F)cc3)s2)c1 [PJL-79]
- pKd [1]: 5.15
- FP % inhibition [2]: 18%
- pIC50 [2]: 4.26
- inhibition at 50 µM [3]: 97%
- Pre-emergence assay Germination inhibition on (%) [7]: 95%
- Pre-emergence assay Growth inhibition on (%) [7]: 90%

SMILES: O=C(O)c1cc(F)ccc1NS(=O)(=O)c1cnc(-c2ccccc2)s1 [PJL-47]
- pKd [1]: 5.22
- FP % inhibition [2]: 16%
- pIC50 [2]: 4.17
- inhibition at 50 µM [3]: 88%
- Pre-emergence assay Germination inhibition on (%) [4]: 66%
- Pre-emergence assay Growth inhibition on (%) [4]: 20%

SMILES: O=C(O)c1ccccc1-c1ccccc1C(=O)Nc1nc(-c2ccc(Cl)cc2Cl)cs1 [PJL-109]
- pKd [1]: 7.15
- FP % inhibition [2]: 48%
- pIC50 [2]: 5.27
- inhibition at 50 µM [3]: 89%
- effect of added cysteine on the inhibition by the compound ([8]; 0.03 mM L-cysteine on agar plates, dose-response, result in words): partially reverses the germination inhibition effect
- pIC50 ([8]; 0 mM L-cysteine (no external addition of cysteine)): 5.77
- pIC50 ([8]; 0.03 mM L-cysteine in the medium): 5.31
- Pre-emergence assay Germination inhibition on (%) [9]: 63%
- Pre-emergence assay Growth inhibition on (%) [9]: 0%

SMILES: COc1ccc(-c2csc(NC(=O)c3cc(C)ccc3-c3ccccc3C(=O)O)n2)cc1 [PJL-126]
- pKd [1]: 5.52
- FP % inhibition [2]: 58%
- pIC50 [2]: 5.68
- inhibition at 50 µM [3]: 93%

SMILES: O=C(O)c1ccccc1-c1ccccc1C(=O)Nc1cccc(-c2nc3ccccc3[nH]2)c1 [PJL-65]
- pKd [1]: 5.75
- FP % inhibition [2]: 38%
- pIC50 [2]: 5.40
- inhibition at 50 µM [3]: 0%

SMILES: O=C(O)c1ccccc1-c1ccccc1C(=O)Nc1cccc(O)c1 [PJL-64]
- pKd [1]: 5.47
- FP % inhibition [2]: 23%
- pIC50 [2]: 4.89
- inhibition at 50 µM [3]: 23%

SMILES: O=C(Nc1cccc(NC(=O)c2ccccc2-c2ccccc2C(=O)O)c1)c1ccco1 [PJL-60]
- pKd [1]: 5.90
- FP % inhibition [2]: 32%
- pIC50 [2]: 5.32
- inhibition at 50 µM [3]: 0%

SMILES: COc1ccc(-c2csc(NC(=O)c3ccccc3-c3ccccc3C(=O)O)n2)c(Cl)c1 [PJL-116]
- pKd [1]: 6.30
- FP % inhibition [2]: 41%
- pIC50 [2]: 5.44
- inhibition at 50 µM [3]: 92%
- Pre-emergence assay Germination inhibition on (%) [5]: 75%
- Pre-emergence assay Growth inhibition on (%) [5]: 80%

SMILES: O=C(O)c1cc(F)ccc1NS(=O)(=O)c1cnc(-c2ccccc2)o1 [PJL-81]
- pKd [1]: 4.55
- FP % inhibition [2]: 23%
- pIC50 [2]: 4.49
- inhibition at 50 µM [3]: 15%

SMILES: O=C(O)c1cccc(NC2=C(Cl)C(=O)N(c3cc(Cl)ccc3Cl)C2=O)c1 [PJL-211]
- pKd [1]: 4.94
- FP % inhibition [2]: 17%
- pIC50 [2]: 4.19
- inhibition at 50 µM [3]: 72%

SMILES: O=C(Nc1cccc(O)c1)c1cccc(NC(=O)c2ccccc2-c2ccccc2C(=O)O)c1 [PJL-63]
- pKd [1]: 5.83
- FP % inhibition [2]: 34%
- pIC50 [2]: 5.20
- inhibition at 50 µM [3]: 12%

SMILES: CC(C)n1nnc(-c2ccc(O)c(NC(=O)Cc3ccccc3C(=O)O)c2)n1 [PJL-208]
- pKd [1]: 4.70
- FP % inhibition [2]: 16%
- pIC50 [2]: 4.01
- inhibition at 50 µM [3]: 0%
